The subject of assay [1] is MDA-MB-231 cancer cells. As to the kind of experiment: MDA-MB-231 tumour growth in the mammary fat pad of SCID mice. The class given is in vivo. The conditions noted are these: 10 mg/kg, peritumoral injection, once every three days, monotherapy, versus vehicle (PBS); P<0.01. As to the method:
(A) MDA-MB-231 cells have been injected into the mammary fat pad of SCID mice. When the tumors reached a mean volume of about 90 mm^3, mice were treated with dTAT 1-23 C20A peptide at 10 mg/kg, peritumoral injection, once every three days, or vehicle alone (PBS) with the same injection periodicity.
SCID Mice have been used as tumor model for testing the effects of administration of the peptides according to the invention
MDA-MB-231 cancer cells have been injected into the mammary fat pad of SCID mice.

Assay [2] concerns the target T1, Nrh/IP3R1 complex (Flag-Nrh / HA-hBD IP3R1) (Homo sapiens, UniProt Q9HD36).
T1 construct: expressed in transfected cells; host or cells: HeLa
T1 sequence (Q9HD36 11-204): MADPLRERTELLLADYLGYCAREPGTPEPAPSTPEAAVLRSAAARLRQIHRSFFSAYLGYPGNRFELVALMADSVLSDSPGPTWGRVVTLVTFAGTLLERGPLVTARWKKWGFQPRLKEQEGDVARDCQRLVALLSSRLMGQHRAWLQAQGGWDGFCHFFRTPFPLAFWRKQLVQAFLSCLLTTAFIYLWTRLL
Nature of the assay: Co-immunoprecipitation of Flag-Nrh and HA-hBD IP3R1 in HeLa cells pre-incubated with dTAT peptides. The class given is cell-based. The conditions noted are these: 10 μM peptide, pre-incubated 1 h at 37° C., no external agent. As to the method: (B) The interaction between Flag-Nrh and HA-hBD IP3R1 was assessed by co-immunoprecipitation in HeLa cells transfected with a plasmid coding for Flag-Nrh or HA-hBD IP3R1, pre-incubated with 10 μM control peptide (dTAT 1-23 C20A Y16F) or 10 μM peptide (dTAT 1-23 C20A). In this experiment, dTAT-Nrh 1-23 C20A but not dTAT 1-23 C20A Y16F disrupts the Nrh/IP3R1 complex.
The interaction between Flag-Nrh (Bcl-2 L10) and HA-hBD IP3R1 was assessed by co-immunoprecipitation in HeLa cells transfected with a plasmid coding for Flag-Nrh or HA-hBD IP3R1, pre-incubated for 1 h at 37° C. in Ca^2+-free Balanced Salt Solution (121 mM NaCl, 5.4 mM KCl, 0.8 mM MgCl2, 6 mM NaHCO3, 5.5 mM D-glucose, 25 mM HEPES, pH 7.3) with vehicle (peptide solvant [H2O-TFA 0.1%]), and: • 10 μM of control peptide (dTAT 1-23 Y16F C20A) or • 10 μM of wild-type peptide (dTAT 1-23 C20A).
Cells were washed twice and incubated for another 1 h at 37° C. before harvest.

For the sequence “CKRKKRRQRRRGGSGGADPLRERTELLLADYLGYAARE [dTAT 1-23 C20A]”, the “effect on tumoral growth (tumor volume)” value in assay [1] is given as “significant effect”. In addition, the “disruption of the Nrh/IP3R1 complex (co-immunoprecipitation)” value in assay [2] was “disrupt the Nrh/IP3R1 complex”.

The values above are taken from US20190030126A1, “Inhibitors of the Interaction BCL-2 L10 / IP3 Receptors” (Universite Claude Bernard - Lyon 1, priority 2016, published 2019).
